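Values below derive from 48-hour exposures of cells grown in 96-well plates, with endpoints linearly interpolated between the two concentrations bracketing the appropriate inhibition level. GI50 is the concentration that inhibits growth by half.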 Calls of active or inactive are those of the source. Rule as the data show it: active = GI50 up to about 1.1 µM and inactive = higher.
Key:
Experiment in all cases: NCI anticancer screen, dose series, 48 h
BT-549 = tested on: BT-549
DU-145 = tested on: DU-145
HCT-116 = tested on: HCT-116
HCT-15 = tested on: HCT-15
Hs-578T = tested on: Hs-578T
LOX IMVI = tested on: LOX IMVI
MCF7 = tested on: MCF7
MDA-MB-231 = tested on: MDA-MB-231
MDA-MB-435 = tested on: MDA-MB-435
MDA-N = tested on: MDA-N
MOLT-4 = tested on: MOLT-4
Malme-3M = tested on: Malme-3M
OVCAR-5 = tested on: OVCAR-5
PC-3 = tested on: PC-3
SK-MEL-2 = tested on: SK-MEL-2
SK-MEL-5 = tested on: SK-MEL-5
SW-620 = tested on: SW-620

Structure (SMILES) | GI50 (BT-549) | GI50 (DU-145) | GI50 (HCT-116) | GI50 (HCT-15) | GI50 (Hs-578T) | GI50 (LOX IMVI) | GI50 (MCF7) | GI50 (MDA-MB-231) | GI50 (MDA-MB-435) | GI50 (MDA-N) | GI50 (MOLT-4) | GI50 (Malme-3M) | GI50 (OVCAR-5) | GI50 (PC-3) | GI50 (SK-MEL-2) | GI50 (SK-MEL-5) | GI50 (SW-620)
CC12CCC(O)CC1CCC1C2CCC2(C)C(C(=O)CC(O)C(F)(F)F)CCC12 (centres undefined) | > 78.3 µM (inactive) | > 87.5 µM (inactive) | 28.4 µM (inactive) | 9.06 µM | 23.9 µM (inactive) | 7 µM (inactive) | 31.2 µM (inactive) | 26.7 µM (inactive) | > 75 µM (inactive) | 61.1 µM (inactive) | 9.35 µM (inactive) | 51.3 µM (inactive) | 26.4 µM (inactive) | 30.6 µM (inactive) | 32.1 µM (inactive) | 28.4 µM (inactive) | 40.5 µM (inactive)
CN(C)C(=S)SCC(N)=O | > 100 µM (inactive) | > 100 µM (inactive) | > 100 µM (inactive) | > 100 µM | > 100 µM (inactive) | > 100 µM (inactive) | > 100 µM (inactive) | > 100 µM (inactive) | > 100 µM (inactive) | > 100 µM (inactive) | > 100 µM (inactive) | > 100 µM (inactive) | > 100 µM (inactive) | > 100 µM (inactive) | > 100 µM (inactive) | 65.2 µM (inactive) | > 100 µM (inactive)
CC(C)(C)c1ccc(-n2c3nc(=O)n(-c4ccccc4CO)c(=O)c-3cc3ccccc32)cc1 | 38.4 µM (inactive) | 42.4 µM (inactive) | 38.4 µM (inactive) | 48.4 µM | 64.3 µM (inactive) | 20.5 µM (inactive) | 65.6 µM (inactive) | 19.9 µM (inactive) | 36.1 µM (inactive) | 22.2 µM (inactive) | 16.1 µM (inactive) | > 100 µM (inactive) | > 100 µM (inactive) | 39.7 µM (inactive) | > 10 µM (inactive) | 38.9 µM (inactive) | 39.2 µM (inactive)
CCCCCCNC(=O)C1=C(C)NC(C)=C(C(=O)NCCCCCC)C1 | > 100 µM (inactive) | > 100 µM (inactive) | > 100 µM (inactive) | > 100 µM | > 100 µM (inactive) | > 100 µM (inactive) | > 100 µM (inactive) | > 100 µM (inactive) | 64.7 µM (inactive) | 75.5 µM (inactive) | > 100 µM (inactive) | – | > 100 µM (inactive) | > 100 µM (inactive) | > 100 µM (inactive) | > 100 µM (inactive) | > 100 µM (inactive)
Cc1ncc([N+](=O)[O-])n1CC[N+](C)([O-])CCCCn1ccnc1[N+](=O)[O-] (centres undefined) | > 100 µM (inactive) | > 100 µM (inactive) | > 100 µM (inactive) | > 100 µM | > 100 µM (inactive) | > 100 µM (inactive) | > 100 µM (inactive) | > 100 µM (inactive) | > 100 µM (inactive) | > 100 µM (inactive) | > 100 µM (inactive) | > 100 µM (inactive) | > 100 µM (inactive) | > 100 µM (inactive) | > 100 µM (inactive) | > 100 µM (inactive) | > 100 µM (inactive)
Fc1cccc(CSc2ncnc3c2ncn3C2CCCS2)c1 (centres undefined) | 21.7 µM (inactive) | 17.4 µM (inactive) | 8.34 µM (inactive) | 8.51 µM | 26.9 µM (inactive) | 13.2 µM (inactive) | 22 µM (inactive) | 23 µM (inactive) | 18.5 µM (inactive) | 20.8 µM (inactive) | 3.77 µM (inactive) | 21 µM (inactive) | 37.3 µM (inactive) | 14.5 µM (inactive) | 19.6 µM (inactive) | 10.5 µM (inactive) | 29.9 µM (inactive)
N#Cc1c(Nc2ccc(F)cc2)[n+]([O-])c2ccc(Cl)cc2[n+]1[O-] | 8.93 µM (inactive) | 11.8 µM (inactive) | 3.05 µM (inactive) | 2.5 µM | 38.3 µM (inactive) | 0.975 µM (active) | 2.11 µM (inactive) | 2.66 µM (inactive) | 4.04 µM (inactive) | 6.73 µM (inactive) | 2.52 µM (inactive) | 27.5 µM (inactive) | – | 4.81 µM (inactive) | 3.67 µM (inactive) | 3.91 µM (inactive) | 3.78 µM (inactive)
CC1=C2c3c(C)ccc4ccc(C)c(c34)C2(O)C(C)C1=O (centres undefined) | 21 µM (inactive) | > 100 µM (inactive) | 43.8 µM (inactive) | 42.8 µM | 35.1 µM (inactive) | 45.4 µM (inactive) | 68.5 µM (inactive) | 89.1 µM (inactive) | 52.1 µM (inactive) | 54.1 µM (inactive) | 25 µM (inactive) | – | > 100 µM (inactive) | 32.7 µM (inactive) | > 100 µM (inactive) | 29.2 µM (inactive) | > 100 µM (inactive)
COC1CC(=O)C2C(=O)N(c3ccccc3)C(=O)C23C(C(=O)c2ccccc2)=C(C)NC13O (centres undefined) | 23.3 µM (inactive) | 13.5 µM (inactive) | 9.2 µM (inactive) | 8.49 µM | 22.2 µM (inactive) | 13.4 µM (inactive) | 4.06 µM (inactive) | 17.1 µM (inactive) | 14.5 µM (inactive) | 18.7 µM (inactive) | – | 1.43 µM (inactive) | 18.9 µM (inactive) | 10.4 µM (inactive) | 17.1 µM (inactive) | 18.6 µM (inactive) | 5.02 µM (inactive)
CC(C)(/N=N/C(C)(C)C(=O)NCCO)C(=O)NCCO | > 100 µM (inactive) | > 100 µM (inactive) | > 100 µM (inactive) | > 100 µM | > 100 µM (inactive) | > 100 µM (inactive) | > 100 µM (inactive) | > 100 µM (inactive) | > 100 µM (inactive) | > 100 µM (inactive) | > 100 µM (inactive) | > 100 µM (inactive) | > 100 µM (inactive) | > 100 µM (inactive) | > 100 µM (inactive) | > 100 µM (inactive) | > 100 µM (inactive)
CCOC(=O)c1nc2ccccc2n(CC)c1=O | > 100 µM (inactive) | > 100 µM (inactive) | > 100 µM (inactive) | > 100 µM | > 100 µM (inactive) | > 100 µM (inactive) | > 100 µM (inactive) | > 100 µM (inactive) | > 100 µM (inactive) | > 100 µM (inactive) | > 100 µM (inactive) | > 100 µM (inactive) | > 100 µM (inactive) | > 100 µM (inactive) | > 100 µM (inactive) | > 100 µM (inactive) | > 100 µM (inactive)
CCN(CC)c1ccc2cc(C(=O)Nc3nc(C45CC6CC(CC(C6)C4)C5)cs3)c(=O)oc2c1 | > 100 µM (inactive) | > 100 µM (inactive) | > 100 µM (inactive) | > 100 µM | > 100 µM (inactive) | > 100 µM (inactive) | > 100 µM (inactive) | > 100 µM (inactive) | > 100 µM (inactive) | > 100 µM (inactive) | > 100 µM (inactive) | > 100 µM (inactive) | > 100 µM (inactive) | > 100 µM (inactive) | – | > 100 µM (inactive) | > 100 µM (inactive)
CC(=O)OCCCCn1cnc2c(Cl)nc(Nc3ccccc3)nc21 | > 100 µM (inactive) | > 100 µM (inactive) | > 100 µM (inactive) | > 100 µM | > 100 µM (inactive) | > 100 µM (inactive) | > 100 µM (inactive) | > 100 µM (inactive) | > 100 µM (inactive) | > 100 µM (inactive) | > 100 µM (inactive) | > 100 µM (inactive) | > 100 µM (inactive) | > 100 µM (inactive) | – | 65.6 µM (inactive) | > 100 µM (inactive)
O=C1/C(=C/c2cccs2)N=C(c2ccccc2)N1C1Nc2cc3c(cc2S1)NC(N1C(=O)/C(=C/c2cccs2)N=C1c1ccccc1)S3 (centres undefined) | 18.1 µM (inactive) | 24.7 µM (inactive) | 15 µM (inactive) | 15.6 µM | 24.2 µM (inactive) | 15 µM (inactive) | 23 µM (inactive) | 30.2 µM (inactive) | 17.7 µM (inactive) | 18.6 µM (inactive) | 12.6 µM (inactive) | – | 27.7 µM (inactive) | 38.7 µM (inactive) | 18.6 µM (inactive) | 17 µM (inactive) | 26.9 µM (inactive)
O=C(CC(=O)Nc1ccc(C(=O)O)cc1)Nc1ccc(C(=O)O)cc1 | > 100 µM (inactive) | > 100 µM (inactive) | > 100 µM (inactive) | > 10 µM | > 100 µM (inactive) | > 100 µM (inactive) | > 100 µM (inactive) | > 100 µM (inactive) | > 100 µM (inactive) | > 100 µM (inactive) | > 100 µM (inactive) | > 100 µM (inactive) | – | > 100 µM (inactive) | 17.3 µM (inactive) | > 100 µM (inactive) | > 100 µM (inactive)
COc1ccc(-c2c3c([nH]c(=S)c2C#N)CC(C)(C)CC3=O)cc1 | > 100 µM (inactive) | > 100 µM (inactive) | > 100 µM (inactive) | > 100 µM | > 100 µM (inactive) | > 100 µM (inactive) | > 100 µM (inactive) | > 100 µM (inactive) | – | > 100 µM (inactive) | > 100 µM (inactive) | > 100 µM (inactive) | > 100 µM (inactive) | > 100 µM (inactive) | > 100 µM (inactive) | > 100 µM (inactive) | > 100 µM (inactive)
CSC1=Nc2ccccc2N(C)c2c1c(-c1ccccc1)nn2C | 57.7 µM (inactive) | 91.6 µM (inactive) | 22.1 µM (inactive) | 56.9 µM | 68.9 µM (inactive) | 29.1 µM (inactive) | 23.8 µM (inactive) | 45.2 µM (inactive) | 28.4 µM (inactive) | 27.7 µM (inactive) | 8.99 µM (inactive) | – | > 100 µM (inactive) | 35.1 µM (inactive) | 23.2 µM (inactive) | 17.8 µM (inactive) | 40.6 µM (inactive)
